The source of these data is the supplement of paper PMC10307832.

Holding throughout (assay): relative viability (nuclei count vs DMSO), 5 days (fraction); higher = more cells survive
Compound in the assay “Darinaparsin + Olaparib”: C[As](C)SC[C@H](NC(=O)CC[C@H](N)C(=O)O)C(=O)NCC(=O)O [Darinaparsin] + O=C(c1cc(Cc2n[nH]c(=O)c3ccccc23)ccc1F)N1CCN(C(=O)C2CC2)CC1 [Olaparib] (partner 8 µM)
In outline:
(§1)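 Relative viability was taken as the ratio of nuclei in treated wells to nuclei in vehicle wells. Lung cancer cell lines in 1536-well plates received compounds by pin tool one day after seeding, either one drug alone or a fixed anchor-drug dose plus five library-drug doses (not always all listed) in √10 steps. Nuclei were counted on 4× images after 5 days of treatment, and values are medians of duplicate plates.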

Compound in assay [1]: C[As](C)SC[C@H](NC(=O)CC[C@H](N)C(=O)O)C(=O)NCC(=O)O [Darinaparsin] + CS(=O)(=O)N1CCN(Cc2cc3nc(-c4cccc5[nH]ncc45)nc(N4CCOCC4)c3s2)CC1 [Pictilisib] (partner 1 µM)
In outline:
as §1

Compound in the assay “Darinaparsin + OSI-027”: C[As](C)SC[C@H](NC(=O)CC[C@H](N)C(=O)O)C(=O)NCC(=O)O [Darinaparsin] + COc1cccc2cc(-c3nc([C@H]4CC[C@H](C(=O)O)CC4)n4ncnc(N)c34)[nH]c12 [OSI-027] (partner 0.5 µM)
The method, boiled down:
as §1

Compound in the assay “QS11 + Alpelisib”: C1CC2=C(C1)C=C(C=C2)OC3=NC(=C4C(=N3)N(C=N4)CC5=CC=C(C=C5)C6=CC=CC=C6)N[C@@H](CC7=CC=CC=C7)CO [QS11] + Cc1nc(NC(=O)N2CCC[C@H]2C(N)=O)sc1-c1ccnc(C(C)(C)C(F)(F)F)c1 [Alpelisib] (partner 2 µM)
In outline:
as §1

Compound in the assay “QS11 + AZD7762”: C1CC2=C(C1)C=C(C=C2)OC3=NC(=C4C(=N3)N(C=N4)CC5=CC=C(C=C5)C6=CC=CC=C6)N[C@@H](CC7=CC=CC=C7)CO [QS11] + NC(=O)Nc1cc(-c2cccc(F)c2)sc1C(=O)N[C@H]1CCCNC1 [AZD7762] (partner 0.2 µM)
In outline:
as §1

With LCLC-97TM1, the relative viability was found to be 0.599 in the assay with Darinaparsin + Olaparib (first compound 0.08 µM); 0.303 with Darinaparsin + Olaparib (first compound 0.8 µM); 0.404 with Darinaparsin + Olaparib (first compound 2.53 µM); 0.612 with Darinaparsin + Olaparib (first compound 8 µM); 0.191 in assay [1] (first compound 0.08 µM); 0.153 in assay [1] (first compound 0.8 µM). For the same cell line, the relative viability in assay [1] (first compound 2.53 µM) worked out at 0.15; in assay [1] (first compound 8 µM), 0.178; in the assay with Darinaparsin + OSI-027 (first compound 0.08 µM) it was 0.654; with Darinaparsin + OSI-027 (first compound 0.8 µM), 0.468; with Darinaparsin + OSI-027 (first compound 2.53 µM), 0.514; with Darinaparsin + OSI-027 (first compound 8 µM), 0.615. Besides, the relative viability in the assay with QS11 + Alpelisib (first compound 0.08 µM) was 0.225; with QS11 + Alpelisib (first compound 0.253 µM), 0.233; with QS11 + Alpelisib (first compound 0.8 µM), 0.201; with QS11 + Alpelisib (first compound 2.53 µM), 0.323; with QS11 + Alpelisib (first compound 8 µM) it was 0.299; in the assay with QS11 + AZD7762 (first compound 0.253 µM) it was 0.192. The relative viability in the assay with QS11 + AZD7762 (first compound 2.53 µM) is 0.27; with QS11 + AZD7762 (first compound 8 µM), 0.418.
